Laboratory results: US7625894B2, “Pyrrolo[2,3-d]Pyrimidines as Protein Tyrosine Kinase Inhibitors” (Novartis AG, priority 2004, dated 2009)

Legend:
c-Raf-1 = target: T1, c-Raf-1 (Homo sapiens, UniProt P04049); assay: c-Raf-1 protein kinase assay; type: biochemical; parameters: dose or concentration left out as unconfirmed
T1 construct: made in house; host or cells: Sf21 insect cells, triple baculovirus infection (GST-c-Raf-1, v-Ras, v-Src)
Protocol: c-Raf-1 protein kinase assay: Recombinant c-Raf-1 protein is obtained by triple infection of Sf21 cells with GST-c-Raf-1 recombinant baculovirus together with v-Src and v-Ras recombinant baculoviruses that are required for active c-Raf-1 kinase production (Williams et al., PNAS 1992; 89:2922-6). Active Ras (v-Ras) is required to recruit c-Raf-1 to the cell membrane and v-Src to phosphorylate c-Raf-1 to fully activate it. Cells are seeded at 2.5×10^7 cells per 150 mm dish and allowed to attach to a 150 mm dish for 1 hr at RT. Media (SF900II containing 10% FBS) is aspirated and recombinant baculovirus GST-c-Raf-1, v-Ras and v-Src are added at MOI of 3.0, 2.5 and 2.5, respectively, in a total volume of 4-5 mL. Cells are incubated for 1 hr at RT and then 15 mL of medium is added. Infected cells are incubated for 48-72 hr at 27° C. Infected Sf21 cells are scraped and collected into a 50 mL tube and centrifuged for 10 min at 4° C. at 1100 g in a Sorvall centrifuge. The cell pellet is washed once with ice cold PBS and lysed with 0.6 mL lysis buffer per 2.5×10^7 cells. Complete lysis of cells is achieved after 10 min on ice with occasional pipetting. The cell lysates are centrifuged for 10 min at 4° C. at 14,500 g in a Sorvall centrifuge with SS-34 rotor and the supernatant is transferred to a fresh tube and stored at −80° C. c-Raf-1 is purified from cell lysates using 100 μL of packed glutathione-sepharose 4B beads equilibrated in ice cold PBS per 2.5×10^7 cells. GST-c-Raf-1 is allowed to bind to the beads at 4° C. for 1 hr with rocking. Bound GST-c-Raf-1 with beads is transferred to a column. The column is washed once with lysis buffer and twice with ice cold Tris buffered saline. Ice cold elution buffer is added and column flow is stopped to allow the free glutathione to disrupt the interaction of GST-c-Raf-1 with glutathione sepharose beads. Fractions (1 mL) are collected into pre-chilled tubes. Each tube contains 10% glycerol (final concentration) to maintain kinase activity during freeze thaw cycles. Purified fractions of GST-c-Raf-1 kinase protein are stored at −80° C.
IκB is used as substrate for the c-Raf-1 kinase. IκB is expressed in bacteria as a His-tagged protein BL21. LysS bacteria containing the IκB plasmid are grown to an OD600 of 0.6 in LB medium, then induced to express the IκB with IPTG (final concentration of 1 mM) for 3 hrs at 37° C. and then bacteria are lysed by sonication (microtip limit setting for 3 times at 1 min each in sonication buffer [50 mM Tris pH 8.0, 1 mM DTT, 1 mM EDTA] and centrifuged at 10,000 g for 15 min. The supernatant is mixed with ammonium sulfate to give a final concentration of 30%. This mixture is rocked for 15 min at 4 C then spun at 10,000 g for 15 min. The pellet is resuspended in binding buffer (Novagen) containing 10 mM BSA. This solution is applied to Ni-agarose (Novagen) and washed according to the Novagen manual. IκB is eluted from the column using elution buffer (0.4 M imidazole, 0.2 M NaCl, 8 mM Tris pH 7.9). Fractions containing protein are dialysed in 50 mM Tris pH 8, 1 mM DTT. The activity of c-Raf-1 protein kinase is assayed in the presence or absence of inhibitors, by measuring the incorporation of ^33P from [γ^33P] ATP into IκB. The assay is carried out in 96-well plates at ambient temperature for 60 min. It contains (total volume of 30 μL): c-Raf-1 kinase (400 ng), 25 mM Tris.HCl, pH 7.5, 5 mM MgCl2, 5 mM MnCl2, 10 μM Na3VO4, 1 mM DTT and 0.3 μCi/assay [γ^33P]-ATP (10 μM ATP) using 600 ng IκB in the presence of 1% DMSO. Reactions are terminated by adding 10 μL of 250 mM EDTA and 30 μL of the reaction mixture is transferred onto Immobilon-PVDF membrane (Millipore, Bedford, Mass., USA) previously soaked for 5 min with methanol, rinsed with water, then soaked for 5 min with 0.5% H3PO4 and mounted on vacuum manifold with disconnected vacuum source. After spotting all samples, vacuum is connected and each well rinsed with 200 μL 0.5% H3PO4. […]

| Molecule | c-Raf-1/ %-inh. [%] (c-Raf-1) | melting point [°C] |
| --- | --- | --- |
| CN1CCN(C(=O)c2ccc(-c3cc4c(N(C)C)ncnc4[nH]3)cc2)CC1 [Example 3, [4-(4-Dimethylamino-7H-pyrrolo[2,3-d]pyrimidin-6-yl)-phenyl]-(4-methyl-piperazin-1-yl)-methanone] | 51 | 275 to 277 |
| CN1CCN(Cc2ccc(-c3cc4c(N(C)C)ncnc4[nH]3)cc2)CC1 [Example 4, Dimethyl-{6-[4-(4-methyl-piperazin-1-ylmethyl)-phenyl]-7H-pyrrolo[2,3-d]pyrimidin-4-yl}-amine] | 40 | 252 to 254 |
| CCN(CC)CCCNC(=O)c1ccc(-c2cc3c(N(C)C)ncnc3[nH]2)cc1 [Example 5, N-(3-Diethylamino-propyl)-4-(4-dimethylamino-7H-pyrrolo[2,3-d]pyrimidin-6-yl)-benzamide] | 48 | – |
| CN(C)c1ncnc2[nH]c(-c3ccc(C(=O)N4CCOCC4)cc3)cc12 [Example 6, [4-(4-Dimethylamino-7H-pyrrolo[2,3-d]pyrimidin-6-yl)-phenyl]-morpholin-4-yl-methanone] | 63 | 316 to 318 |
| CN(C)c1ncnc2[nH]c(-c3ccc(C(=O)NCCCN4CCOCC4)cc3)cc12 [Example 7, 4-(4-Dimethylamino-7H-pyrrolo[2,3-d]pyrimidin-6-yl)-N-(3-morpholin-4-yl-propyl)-benzamide] | – | 260 to 262 |
| CNc1ncnc2[nH]c(-c3ccc(C(=O)N4CCN(C)CC4)cc3)cc12 [Example 12, [4-(4-Methylamino-7H-pyrrolo[2,3-d]pyrimidin-6-yl)-phenyl]-(4-methyl-piperazin-1-yl)-methanone] | 22 | 315 |
| CN1CCN(C(=O)c2ccc(-c3cc4c(NCCCO)ncnc4[nH]3)cc2)CC1 [Example 15, {4-[4-(3-Hydroxy-propylamino)-7H-pyrrolo[2,3-d]pyrimidin-6-yl]-phenyl}-(4-methyl-piperazin-1-yl)-methanone] | 64 | 302 to 305 |
| CNc1ncnc2[nH]c(-c3ccc(CN4CCN(C)CC4)cc3)cc12 [Example 16, Methyl-{6-[4-(4-methyl-piperazin-1-ylmethyl)-phenyl]-7H-pyrrolo[2,3-d]pyrimidin-4-yl}-amine] | 67 | – |
| CCCNc1ncnc2[nH]c(-c3ccc(C(=O)N4CCN(C)CC4)cc3)cc12 [Example 17, (4-Methyl-piperazin-1-yl)-[4-(4-propylamino-7H-pyrrolo[2,3-d]pyrimidin-6-yl)-phenyl]-methanone] | 100 | 302 to 305 |
| CCCNc1ncnc2[nH]c(-c3ccc(CN4CCN(C)CC4)cc3)cc12 [Example 18, {6-[4-(4-Methyl-piperazin-1-ylmethyl)-phenyl]-7H-pyrrolo[2,3-d]pyrimidin-4-yl}-propyl-amine] | 100 | 232 to 234 |
| CCCN(C)c1ncnc2[nH]c(-c3ccc(CN4CCN(C)CC4)cc3)cc12 [Example 19, Methyl-{6-[4-(4-methyl-piperazin-1-ylmethyl)-phenyl]-7H-pyrrolo[2,3-d]pyrimidin-4-yl}-propyl-amine] | 100 | – |
| CN(C)c1ncnc2[nH]c(-c3ccc(Cn4ccnc4)cc3)cc12 [Example 24, [6-(4-Imidazol-1-ylmethyl-phenyl)-7H-pyrrolo[2,3-d]pyrimidin-4-yl]-dimethylamine] | 100 | – |
| CN(C)c1ncnc2[nH]c(-c3ccc(Cc4ccc[nH]4)cc3)cc12 [Example 25, Dimethyl-{6-[4-(1H-pyrrol-2-ylmethyl)-phenyl]-7H-pyrrolo[2,3-d]pyrimidin-4-yl}-amine] | 96 | 285 to 287 |
| CN(C)c1ncnc2[nH]c(-c3ccc(Cn4cnnn4)cc3)cc12 [Example 27, Dimethyl-[6-(4-tetrazol-1-ylmethyl-phenyl)-7H-pyrrolo[2,3-d]pyrimidin-4-yl]-amine] | 100 | 275 to 278 |
| CN(C)c1ncnc2[nH]c(-c3ccc(CNCCCO)cc3)cc12 [Example 28, 3-[4-(4-Dimethylamino-7H-pyrrolo[2,3-d]pyrimidin-6-yl)-benzylamino]-propan-1-ol] | 80 | 218 to 220 |
| COCCN(C)Cc1ccc(-c2cc3c(N(C)C)ncnc3[nH]2)cc1 [Example 29, [6-(4-{[(2-Methoxy-ethyl)-methyl-amino]-methyl}-phenyl)-7H-pyrrolo[2,3-d]pyrimidin-4-yl]-dimethyl-amine] | 77 | 157 to 158 |
| CCC(O)(CC)c1ccc(-c2cc3c(NCCCn4cccc4)ncnc3[nH]2)cc1 [Example 33, 3-{4-[4-(3-Pyrrol-1-yl-propylamino)-7H-pyrrolo[2,3-d]pyrimidin-6-yl]-phenyl}-pentan-3-ol] | 48 | 180 to 182 |
| CN(C)c1ncnc2[nH]c(-c3ccc(C(C)(C)O)cc3)cc12 [Example 34, 2-[4-(4-Dimethylamino-7H-pyrrolo[2,3-d]pyrimidin-6-yl)-phenyl]-propan-2-ol] | 50 | > 300 |
| CNc1ncnc2[nH]c(-c3ccc(C(C)(C)O)cc3)cc12 [Example 35, 2-[4-(4-Methylamino-7H-pyrrolo[2,3-d]pyrimidin-6-yl)-phenyl]-propan-2-ol] | 44 | 280 to 283 |
| [4-(4-Methylamino-7H-pyrrolo[2,3-d]pyrimidin-6-yl)-phenyl]-morpholin-4-yl-methanone [Example 2] | 56 | – |
